Counter-ions that a name gives are not always drawn.
target: human cloned 5-HT6 receptors (Homo sapiens, UniProt P50406); assay: Evaluation of 5-HT6 binding affinity of test compounds ([3H]-LSD displacement)
Sequence (P50406 whole entry): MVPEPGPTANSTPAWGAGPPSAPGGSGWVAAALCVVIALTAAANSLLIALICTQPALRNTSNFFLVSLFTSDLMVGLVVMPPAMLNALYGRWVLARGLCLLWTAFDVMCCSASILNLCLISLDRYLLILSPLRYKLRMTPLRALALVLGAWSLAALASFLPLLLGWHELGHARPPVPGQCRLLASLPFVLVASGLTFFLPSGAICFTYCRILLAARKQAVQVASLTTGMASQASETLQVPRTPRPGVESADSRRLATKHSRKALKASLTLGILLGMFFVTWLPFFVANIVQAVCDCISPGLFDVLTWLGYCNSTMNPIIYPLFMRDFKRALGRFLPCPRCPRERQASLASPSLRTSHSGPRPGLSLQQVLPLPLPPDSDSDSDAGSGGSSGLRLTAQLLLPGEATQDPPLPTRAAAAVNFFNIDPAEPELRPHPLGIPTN

Row | Compound | Ki [nM]
1 | O=S(=O)(c1ccccc1)c1n[nH]c2ccc(OC3CCNCC3)cc12 [Example 7, 3-(phenylsulfonyl)-5-(piperidin-4-yloxy)-1H-indazole] | 11 to 25
2 | O=S(=O)(c1cccc(F)c1)c1n[nH]c2ccc(OC3CCNCC3)cc12 [Example 8, 3-[(3-fluorophenyl)sulfonyl]-5-(piperidin-4-yloxy)-1H-indazole] | 11 to 25
3 | O=S(=O)(c1ccccc1Cl)c1n[nH]c2ccc(OC3CCNCC3)cc12 [Example 9, 3-[(2-chlorophenyl)sulfonyl]-5-(piperidin-4-yloxy)-1H-indazole] | > 45
4 | O=S(=O)(c1ccc(Cl)cc1)c1n[nH]c2ccc(OC3CCNCC3)cc12 [Example 11, 3-[(4-chlorophenyl)sulfonyl]-5-(piperidin-4-yloxy)-1H-indazole] | 11 to 25
5 | COc1ccc(S(=O)(=O)c2n[nH]c3ccc(OC4CCNCC4)cc23)cc1 [Example 14, 3-[(4-methoxyphenyl)sulfonyl]-5-(piperidin-4-yloxy)-1H-indazole] | > 45
6 | O=S(=O)(c1ccc(C(F)(F)F)cc1)c1n[nH]c2ccc(OC3CCNCC3)cc12 [Example 16, 5-(piperidin-4-yloxy)-3-{[4-(trifluoromethyl)phenyl]sulfonyl}-1H-indazole] | 11 to 25
7 | CC(C)c1ccc(S(=O)(=O)c2n[nH]c3ccc(OC4CCNCC4)cc23)cc1 [Example 17, 3-[(4-isopropylphenyl)sulfonyl]-5-(piperidin-4-yloxy)-1H-indazole] | 11 to 25
8 | O=S(=O)(c1cccc2ccccc12)c1n[nH]c2ccc(OC3CCN(CCc4ccccc4)CC3)cc12 [Example 23, 3-(1-Naphthylsulfonyl)-5-{[1-(2-phenylethyl)piperidin-4-yl]oxy}-1H-indazole Hydrochloride] | 11 to 25
9 | O=S(=O)(c1cccc2ccccc12)c1n[nH]c2ccc(OC3CCN(CCc4ccccc4)C3)cc12 (centres unmarked) [Example 26, 3-(1-Naphthylsulfonyl)-5-{[1-(2-phenylethyl)pyrrolidin-3-yl]oxy}-1H-indazole Hydrochloride] | 11 to 25
10 | O=S(=O)(c1cccc2ccccc12)c1n[nH]c2cc(NC3CCNCC3)ccc12 [Example 33, 3-(1-Naphthylsulfonyl)-N-piperidin-4-yl-1H-indazol-6-amine Dihydrochloride] | > 45
11 | O=S(=O)(c1cccc2ccccc12)c1n[nH]c2cc(NC3CCCNC3)ccc12 (centres unmarked) [Example 34, 3-(1-Naphthylsulfonyl)-N-piperidin-3-yl-1H-indazol-6-amine Dihydrochloride] | > 45
12 | O=S(=O)(c1cccc2ccccc12)c1n[nH]c2cc(NCC3CCNCC3)ccc12 [Example 35, 3-(1-Naphthylsulfonyl)-N-(piperidin-4-ylmethyl)-1H-indazol-6-amine Dihydrochloride] | 36 to 45
13 | O=S(=O)(c1cccc2ccccc12)c1n[nH]c2c(NC3CCNCC3)cccc12 [Example 36, 3-(1-Naphthylsulfonyl)-N-piperidin-4-yl-1H-indazol-7-amine Dihydrochloride] | 26 to 35
14 | O=S(=O)(c1cccc2ccccc12)c1n[nH]c2c(NC3CCCNC3)cccc12 (centres unmarked) [Example 37, 3-(1-Naphthylsulfonyl)-N-piperidin-3-yl-1H-indazol-7-amine Dihydrochloride] | > 45
15 | O=S(=O)(c1cccc2ccccc12)c1n[nH]c2c(NCC3CCNCC3)cccc12 [Example 38, 3-(1-Naphthylsulfonyl)-N-(piperidin-4-ylmethyl)-1H-indazol-7-amine Dihydrochloride] | 11 to 25
16 | O=S(=O)(c1cccc2ccccc12)c1n[nH]c2cccc(NC3CCNCC3)c12 [Example 39, 3-(1-Naphthylsulfonyl)-N-piperidin-4-yl-1H-indazol-4-amine Dihydrochloride] | 0.01 to 10
17 | O=S(=O)(c1cccc2ccccc12)c1n[nH]c2cccc(NC3CCCNC3)c12 (centres unmarked) [Example 40, 3-(1-Naphthylsulfonyl)-N-piperidin-3-yl-1H-indazol-4-amine Dihydrochloride] | 0.01 to 10
18 | O=S(=O)(c1cccc2ccccc12)c1n[nH]c2cccc(NCC3CCNCC3)c12 [Example 41, 3-(1-Naphthylsulfonyl)-N-(piperidin-4-ylmethyl)-1H-indazol-4-amine Dihydrochloride] | 0.01 to 10
19 | O=S(=O)(c1cccc(Cl)c1)c1n[nH]c2ccc(NC3CCNCC3)cc12 [Example 42, 3-[(3-chlorophenyl)sulfonyl]-N-piperidin-4-yl-1H-indazol-5-amine] | 0.01 to 10
20 | O=S(=O)(c1ccc(Cl)cc1)c1n[nH]c2ccc(NC3CCNCC3)cc12 [Example 43, 3-[(4-chlorophenyl)sulfonyl]-N-piperidin-4-yl-1H-indazol-5-amine] | 0.01 to 10
21 | O=S(=O)(c1ccc2ccccc2c1)c1n[nH]c2ccc(NC3CCNCC3)cc12 [Example 44, 3-(2-naphthylsulfonyl)-N-piperidin-4-yl-1H-indazol-5-amine] | 0.01 to 10
22 | O=S(=O)(c1cccc(F)c1)c1n[nH]c2ccc(NC3CCNCC3)cc12 [Example 45, 3-[(3-fluorophenyl)sulfonyl]-N-piperidin-4-yl-1H-indazol-5-amine] | 0.01 to 10
23 | O=S(=O)(c1ccc(F)cc1)c1n[nH]c2ccc(NC3CCNCC3)cc12 [Example 46, 3-[(4-fluorophenyl)sulfonyl]-N-piperidin-4-yl-1H-indazol-5-amine] | 0.01 to 10
24 | CC(C)c1ccc(S(=O)(=O)c2n[nH]c3ccc(NC4CCNCC4)cc23)cc1 [Example 47, 3-[(4-isopropylphenyl)sulfonyl]-N-piperidin-4-yl-1H-indazol-5-amine] | 0.01 to 10

The remaining lines, values ahead:

Row | Ki [nM] | Compound
25 | 0.01 to 10 | O=S(=O)(c1cccc2ccccc12)c1n[nH]c2ccc(OC3CCNC3)cc12 (centres unmarked) [Example 1, 3-(Naphthalene-1-sulfonyl)-5-(pyrrolidin-3-yloxy)-1H-indazole]
26 | 0.01 to 10 | CCCCN1CCC(Oc2ccc3[nH]nc(S(=O)(=O)c4cccc5ccccc45)c3c2)C1 (centres unmarked) [Example 2, 5-(1-Butylpyrrolidin-3-yloxy)-3-(1-naphthylsulfonyl)-1H-indazole Hydrochloride]
27 | 0.01 to 10 | CCCN1CCC(Oc2ccc3[nH]nc(S(=O)(=O)c4cccc5ccccc45)c3c2)C1 (centres unmarked) [Example 3, 3-(Naphthalene-1-sulfonyl)-5-(1-propyl-pyrrolidin-3-yloxy)-1H-indazole Hydrochloride]
28 | 0.01 to 10 | CC(C)N1CCC(Oc2ccc3[nH]nc(S(=O)(=O)c4cccc5ccccc45)c3c2)C1 (centres unmarked) [Example 4, 5-(1-Isopropyl-pyrrolidin-3-yloxy)-3-(naphthalene-1-sulfonyl)-1H-indazole Hydrochloride]
29 | 0.01 to 10 | CN1CCC(Oc2ccc3[nH]nc(S(=O)(=O)c4cccc5ccccc45)c3c2)C1 (centres unmarked) [Example 5, 5-(1-Methyl-pyrrolidin-3-yloxy)-3-(naphthalene-1-sulfonyl)-1H-indazole Hydrochloride]
30 | 0.01 to 10 | O=S(=O)(c1cccc2ccccc12)c1n[nH]c2ccc(OC3CCNCC3)cc12 [Example 6, 3-(1-Naphthylsulfonyl)-5-(piperidin-4-yloxy)-1H-indazole Hydrochloride]
31 | 0.01 to 10 | O=S(=O)(c1cccc(Cl)c1)c1n[nH]c2ccc(OC3CCNCC3)cc12 [Example 10, 3-[(3-chlorophenyl)sulfonyl]-5-(piperidin-4-yloxy)-1H-indazole]
32 | 0.01 to 10 | Cc1cccc(S(=O)(=O)c2n[nH]c3ccc(OC4CCNCC4)cc23)c1 [Example 12, 3-[(3-methylphenyl)sulfonyl]-5-(piperidin-4-yloxy)-1H-indazole]
33 | 0.01 to 10 | COc1cccc(S(=O)(=O)c2n[nH]c3ccc(OC4CCNCC4)cc23)c1 [Example 13, 3-[(3-methoxyphenyl)sulfonyl]-5-(piperidin-4-yloxy)-1H-indazole]
34 | 0.01 to 10 | O=S(=O)(c1cccc(C(F)(F)F)c1)c1n[nH]c2ccc(OC3CCNCC3)cc12 [Example 15, 5-(piperidin-4-yloxy)-3-{[3-(trifluoromethyl)phenyl]sulfonyl}-1H-indazole]
35 | 0.01 to 10 | Cc1ccc(S(=O)(=O)c2n[nH]c3ccc(OC4CCNCC4)cc23)c2ccccc12 [Example 18, 3-[(4-methyl-1-naphthyl)sulfonyl]-5-(piperidin-4-yloxy)-1H-indazole]
36 | 0.01 to 10 | CCCN1CCC(Oc2ccc3[nH]nc(S(=O)(=O)c4cccc5ccccc45)c3c2)CC1 [Example 19, 3-(1-Naphthylsulfonyl)-5-(1-propylpiperidin-4-yloxy)-1H-indazole Hydrochloride]
37 | 0.01 to 10 | CCCCN1CCC(Oc2ccc3[nH]nc(S(=O)(=O)c4cccc5ccccc45)c3c2)CC1 [Example 20, 5-(1-Butylpiperidin-4-yloxy)-3-(1-naphthylsulfonyl)-1H-indazole Hydrochloride]
38 | 0.01 to 10 | CN1CCC(Oc2ccc3[nH]nc(S(=O)(=O)c4cccc5ccccc45)c3c2)CC1 [Example 21, 5-(1-Methylpiperidin-4-yloxy)-3-(1-naphthylsulfonyl)-1H-indazole Hydrochloride]
39 | 0.01 to 10 | CC(C)N1CCC(Oc2ccc3[nH]nc(S(=O)(=O)c4cccc5ccccc45)c3c2)CC1 [Example 22, 5-(1-Isopropylpiperidin-4-yloxy)-3-(1-naphthylsulfonyl)-1H-indazole Hydrochloride]
40 | 0.01 to 10 | CCN1CCC(Oc2ccc3[nH]nc(S(=O)(=O)c4cccc5ccccc45)c3c2)CC1 [Example 24, 5-[1-(Ethylpiperidin-4-yl)oxy]-3-(1-naphthylsulfonyl)-1H-indazole Hydrochloride]
41 | 0.01 to 10 | CCN1CCC(Oc2ccc3[nH]nc(S(=O)(=O)c4cccc5ccccc45)c3c2)C1 (centres unmarked) [Example 25, 5-[1-(Ethylpyrrolidin-3-yl)oxy]-3-(1-napthylsulfonyl)-1H-indazole Hydrochloride]
42 | 0.01 to 10 | O=S(=O)(c1cccc2ccccc12)c1n[nH]c2ccc(NC3CCNCC3)cc12 [Example 30, [3-(1-Naphthylsulfonyl)-1H-indazol-5-yl]-piperidin-4-ylamine Dihydrochloride]
43 | 0.01 to 10 | O=S(=O)(c1cccc2ccccc12)c1n[nH]c2ccc(NCC3CCNCC3)cc12 [Example 31, 3-(1-Naphthylsulfonyl)-N-(piperidin-4-ylmethyl)-1H-indazol-5-amine Dihydrochloride]
44 | 0.01 to 10 | O=S(=O)(c1cccc2ccccc12)c1n[nH]c2ccc(NC3CCCNC3)cc12 (centres unmarked) [Example 32, 3-(1-Naphthylsulfonyl)-N-piperidin-3-yl-1H-indazol-5-amine Dihydrochloride]
